The results in this text go back to PMC9304282, “Relating Conformational Equilibria to Conformer‐Specific Lipophilicities: New Opportunities in Drug Discovery” (Angewandte Chemie (International Ed. in English), 2021).

The structures appear in SMILES notation. “And” between values parts separate entries of the source, which are not always exact repeats. Equal values may be shown once. Read-outs that look alike come from different tables or passages of the source.

A short description of data set [1]: logP and conformer-specific logp determination by 19F NMR (octanol/water partitioning). As to conditions: for logP: n-octanol/water, octanol/water, 19F NMR. It is filed as physicochemical. The source says:
The principle of the strategy for logp optimization, and of the direct logp measurement, is illustrated for amide rotamers (Figure 2) in slow exchange in solution, where each rotamer signal can be integrated directly. This constitutes a system with four coupled equilibria of conformers between (refers to p) and within (refers to K) the two phases (Figure 2A). Our lipophilicity measurement procedure[18] involves acquiring a ^19F NMR spectrum of each phase after phase separation (Figure 2B), and measuring integration relative to an added internal reference. Three peaks are observed: one corresponding to the reference, and two corresponding to each amide rotamer. A ρ‐value for a given rotamer in a given phase is defined as the integration ratio of the rotamer signal and that of the reference (Eq. 5). Through taking the ratio of the ρ‐values of a rotamer, Equation 6 can be obtained,[18] showing that its logp equals the known logP of the reference plus the log of the ratio of its ρ‐values. The overall logP of the amide is then determined by using the integration sum of its rotamer signals using the same equation.[18]
Linclau et al – supporting information 8
3 The logP determination by 19F NMR
Lipophilicities were determined using a previously published protocol:[1] to a 10 mL pear-shaped flask was added the compound (1.0 - 10 mg) for logP determination, the reference compound (1.0 - 10 mg, with known logP value, e.g., 2,2,2-trifluoroethanol, logP: +0.36), water (2 mL) and n-octanol (2 mL). The resulting biphasic mixture was stirred (at 600 rpm) for 2 h at 25 °C, and then left without stirring for 16 h at 25 °C to allow phase separation. An aliquot of 0.5 mL was taken from each phase using 1 mL syringes with long needles and added to two separate NMR tubes. A deuterated NMR solvent (0.1 mL, e.g., acetone-d6), or a capillary tube containing deuterated NMR solvent, was added to the NMR tubes to enable signal locking.
Because of the volatility of the used compounds, the NMR tubes were sealed using a blowtorch. For NMR samples with directly added deuterated solvent, the tubes were inverted 20 times for mixing. For 19F{1H} NMR experiments, NMR parameters were set as follows: D1 30 sec for the octanol sample, D1 60 sec for the water sample; and O1P centered between two diagnostic fluorine peaks. If needed, an increased number of transients (NS) and/or narrower spectral window (SW) for a good S/N ratio (typically >300) was applied.
After NMR data processing, integration ratios ρoct and ρaq (ρoct is defined as the integration ratio between the compound and the reference compound in the octanol sample; likewise for ρaq) were obtained, and used in the equation (logPX = logPref + log(ρoct/ρaq)) to obtain the logP value of the compound. The logP measurement of each compound was run in triplicate. LogP values of non-fluorinated compounds were taken from the literature.
The standard deviation (σ) was calculated using the formula: […]
Where xi are the individual estimated logP values and x̅ is the mean average.
(§1) Linclau et al – supporting information 21
(§2) 4.3 Detailed experimental data for the logP determinations (roct and rwat values for each
(§3) 4.3.1 Standard NMR settings
(§4) Standard NMR parameter setting: SW, 300 ppm; centered O1P; NS 64; D1 30 sec (octanol sample), D1 60 sec (water sample). Any change from standard setting was described for each compound. Unless specified otherwise 2,2,2-trifluoroethanol (logP: +0.36) was used as the reference compound. […]
(§5) Reference - 1-Fluoropropan-2-ol
(§6) Compound Experimental ρ /ρ LogP Average Error
(§7) (octanol/water) oct wat LogP
(§8) Ratio of E:Z-rotamers, and K value:
(§9) Octanol phase Water phase
(§10) Conformation ρ /ρ LogP Average Error

Data set [2] in a line: amide rotamer ratio (K value) in octanol and water phase by 19F NMR integration. The following applies: experimental. It is filed as physicochemical.
Text: In the closed equilibrium system shown in Figure 2A, the ratio of the p‐values equates to the ratio of the K‐values ((Eq. 7), Figure 2C), so that the difference in logp values equals the log of the K‐value ratio (Eq. 8). In other words: the lipophilicity difference between two conformers is directly related to the change between their equilibrium concentration ratios in water and octanol. The K‐values can be obtained through integration measurement (Eq. 8).
The ρ and K determinations require assignment of each fluorine signal in each phase to a particular rotamer, as it was observed that the relative position of cis‐and trans‐amide rotamer resonances in the ^19F NMR spectrum in octanol was not always the same as that in water. Conformer signal assignment in the water phase is easily accomplished by a control experiment using (octanol‐saturated) D2O by standard NOESY analysis combined with peak integration (see Supporting Information). As perdeuterated octanol is very expensive, this was experimentally non‐trivial for cases when the huge octanol solvent R‐CH 2OH signal and its ^13C satellites obscure proton resonances that are required for rotamer assignment. Solvent suppression techniques are impractical, and skew the integration ratio. We therefore introduced 1,1‐dideuteriooctanol (C7H15CD2OH), which considerably facilitated rotamer assignment. It is prepared on large scale by a modified Bouveault–Blanc reduction[20] of cheap methyl octanoate with EtOD as deuterium source (see Supporting Information).
as §1, §2, §3, §4, §5, §6, §7, §8, §9, §10

[3] abbreviates: difference between trans and cis rotamer logp.
Setting [4] is: unrounded mean, read-out: logP, mean as printed in column Error (±σ).
Where [5] appears, read: unrounded mean, read-out: logp cis rotamer, mean as printed in column Error (±σ).
Where [6] appears, read: unrounded mean, read-out: logp trans rotamer, mean as printed in column Error (±σ).
Setting [7] is: 25 °C, sum of rotamer signals, read-out: logP (macroscopic lipophilicity, average).
[8] abbreviates: difference between E and Z rotamer logp.
Where [9] appears, read: unrounded mean, read-out: logp E rotamer, mean as printed in column Error (±σ).
Where [10] appears, read: unrounded mean, read-out: logp Z rotamer, mean as printed in column Error (±σ).

As usually defined, the logP is a log measure of how a compound divides between an organic and an aqueous phase. `COC(=O)[C@@H]1C[C@@H](F)CN1C(C)=O` [6a, N-acetyl-4R-FPro-OMe] came in with a Δlogp in data set [1] (setting [3]) of 0.09. In addition, the logP in data set [1] (setting [4]) is -0.605; in data set [1] (setting [5]) it was -0.529; in data set [1] (setting [6]) it was -0.618; in data set [1] (setting [7]), -0.6. In addition, the “Kt/c oct (ratio of trans/cis rotamers)” value in data set [2] (octanol phase) was found to be 5.29. Moreover, the results for the Ratio c/t in data set [2] (octanol phase) and in data set [2] (water phase) were 0.19 and 0.15, respectively. In data set [2] (water phase), the “Kt/c wat (ratio of trans/cis rotamers)” value worked out at 6.49.

`CC(=O)N1C[C@H](F)C[C@H]1C(=O)N(C)C` [6b, N-acetyl-(2S,4R)-4-fluoroproline dimethyl amide]: in data set [1] (setting [3]), the Δlogp is -0.27. Besides, the logP in data set [1] (cis amide rotamer, read-out: logp (cis)-rotamer (conformer-specific, average)) was -1.39; in data set [1] (setting [4]), -1.16; in data set [1] (setting [5]) it was -1.39; in data set [1] (setting [6]), -1.12; in data set [1] (setting [7]), -1.16. Moreover, the “Kt/c oct (ratio of trans/cis rotamers)” value in data set [2] (octanol phase) is given as 8.29. The values for the Ratio c/t in data set [2] (octanol phase) and in data set [2] (water phase) were 0.12 and 0.23, respectively. In data set [2] (water phase), the “Kt/c wat (ratio of trans/cis rotamers)” value came out at 4.44.

On to `COC(=O)[C@@H]1CC(F)(F)CN1C(C)=O` [7a, N-Acetyl-4,4-F2Pro-OMe], for which the logP in data set [1] (setting [4]) is -0.196; in data set [1] (setting [5]), -0.035; in data set [1] (setting [6]), -0.256; in data set [1] (setting [7]) it was -0.2. Besides, the “Kt/c oct (ratio of trans/cis rotamers)” value in data set [2] (octanol phase) was determined as 2.09. Further, the “Kt/c wat (ratio of trans/cis rotamers)” value in data set [2] (water phase) is given as 3.48.

Regarding `CC(=O)N1CC(F)(F)C[C@H]1C(=O)N(C)C` [7b, N-Acetyl-4,4-F2Pro-NMe2], the Δlogp in data set [1] (setting [3]) is recorded as -0.11. Also, the logP is -0.888 in data set [1] (setting [4]), -0.978 in data set [1] (setting [5]), -0.866 in data set [1] (setting [6]) and -0.89 in data set [1] (setting [7]). The “Kt/c oct (ratio of trans/cis rotamers)” value in data set [2] (octanol phase) worked out at 4.76. Besides, the Ratio c/t in data set [2] (octanol phase) was 0.21; in data set [2] (water phase), 0.27. Moreover, the “Kt/c wat (ratio of trans/cis rotamers)” value in data set [2] (water phase) is 3.68.

`CC(=O)N1CCC(F)C1` (stereo not shown) [compound 2, N-Acetyl-3-fluoropyrrolidine] yielded a Δlogp in data set [1] (setting [8]) of 0.06. The logP in data set [1] (setting [4]) is -0.568; in data set [1] (setting [9]), -0.602; in data set [1] (setting [10]) it was -0.538; in data set [1] (setting [7]), -0.57. Moreover, the “KE/Z oct (ratio of E:Z rotamers)” value in data set [2] (octanol phase) was found to be 0.75. Besides, the “Ratio Z/E (K value in parentheses)” value came to 1.33 in data set [2] (octanol phase) and 1.16 in data set [2] (water phase). Moreover, the “KE/Z wat (ratio of E:Z rotamers)” value in data set [2] (water phase) is on record as 0.86.

`CC(=O)N1CCC(F)(F)C1` [compound 3, N-Acetyl-3,3-difluoropyrrolidine] gave a Δlogp in data set [1] (setting [8]) of 0.06. Also, the logP in data set [1] (setting [4]) was -0.117; in data set [1] (setting [9]), -0.153; in data set [1] (setting [10]), -0.089; in data set [1] (setting [7]) it was -0.12. For the same molecule, the “KE/Z oct (ratio of E:Z rotamers)” value in data set [2] (octanol phase) was determined as 0.72. Also, the “Ratio Z/E (K value in parentheses)” value was 1.4 and 1.39 in data set [2] (octanol phase); 1.2 and 1.19 in data set [2] (water phase). For the same molecule, in data set [2] (water phase), the “KE/Z wat (ratio of E:Z rotamers)” value is reported as 0.84.

In data set [1] (setting [8]), `CC(=O)N1CCCC(F)C1` (stereo not shown) [compound 4, N-Acetyl-3-fluoropiperidine] had a Δlogp of -0.19. Also, the logP is -0.1 in data set [1] (setting [4]), -0.015 in data set [1] (setting [9]), -0.198 in data set [1] (setting [10]) and -0.1 in data set [1] (setting [7]). Further, the “KE/Z oct (ratio of E:Z rotamers)” value in data set [2] (octanol phase) is listed as 1.43. Further, the “Ratio Z/E (K value in parentheses)” value is 0.70 in data set [2] (octanol phase) and 1.05 in data set [2] (water phase). Moreover, the “KE/Z wat (ratio of E:Z rotamers)” value in data set [2] (water phase) worked out at 0.95.

`CC(=O)N1CCCC(F)(F)C1` [compound 5, N-Acetyl-3,3-difluoropiperidine] came in with a Δlogp in data set [1] (setting [8]) of -0.21. In addition, the logP in data set [1] (setting [4]) was determined as 0.272; in data set [1] (setting [9]), 0.378; in data set [1] (setting [10]) it was 0.174; in data set [1] (setting [7]), 0.27. For the same molecule, the “KE/Z oct (ratio of E:Z rotamers)” value in data set [2] (octanol phase) is listed as 1.17. The “Ratio Z/E (K value in parentheses)” value in data set [2] (octanol phase) was found to be 0.85; in data set [2] (water phase) it was 1.37. Further, in data set [2] (water phase), the “KE/Z wat (ratio of E:Z rotamers)” value is on record as 0.73.
